Experimental data taken from ChEMBL document CHEMBL5308504, “Tm Shift (DSF) assay results for EUbOPEN Chemogenomics Library” (2023).
Values joined by “and” are separate entries in the source; they are usually repeats but may differ in a detail not shown here. Equal values may be shown once.

Tests used:
Peregrin (Homo sapiens) = target: T1, Peregrin (Homo sapiens) (UniProt P55201); conditions: Compound concentration 20.0 uM, Protein concentration 2.0 uM, Result type QC Liability
T1 sequence (whole entry): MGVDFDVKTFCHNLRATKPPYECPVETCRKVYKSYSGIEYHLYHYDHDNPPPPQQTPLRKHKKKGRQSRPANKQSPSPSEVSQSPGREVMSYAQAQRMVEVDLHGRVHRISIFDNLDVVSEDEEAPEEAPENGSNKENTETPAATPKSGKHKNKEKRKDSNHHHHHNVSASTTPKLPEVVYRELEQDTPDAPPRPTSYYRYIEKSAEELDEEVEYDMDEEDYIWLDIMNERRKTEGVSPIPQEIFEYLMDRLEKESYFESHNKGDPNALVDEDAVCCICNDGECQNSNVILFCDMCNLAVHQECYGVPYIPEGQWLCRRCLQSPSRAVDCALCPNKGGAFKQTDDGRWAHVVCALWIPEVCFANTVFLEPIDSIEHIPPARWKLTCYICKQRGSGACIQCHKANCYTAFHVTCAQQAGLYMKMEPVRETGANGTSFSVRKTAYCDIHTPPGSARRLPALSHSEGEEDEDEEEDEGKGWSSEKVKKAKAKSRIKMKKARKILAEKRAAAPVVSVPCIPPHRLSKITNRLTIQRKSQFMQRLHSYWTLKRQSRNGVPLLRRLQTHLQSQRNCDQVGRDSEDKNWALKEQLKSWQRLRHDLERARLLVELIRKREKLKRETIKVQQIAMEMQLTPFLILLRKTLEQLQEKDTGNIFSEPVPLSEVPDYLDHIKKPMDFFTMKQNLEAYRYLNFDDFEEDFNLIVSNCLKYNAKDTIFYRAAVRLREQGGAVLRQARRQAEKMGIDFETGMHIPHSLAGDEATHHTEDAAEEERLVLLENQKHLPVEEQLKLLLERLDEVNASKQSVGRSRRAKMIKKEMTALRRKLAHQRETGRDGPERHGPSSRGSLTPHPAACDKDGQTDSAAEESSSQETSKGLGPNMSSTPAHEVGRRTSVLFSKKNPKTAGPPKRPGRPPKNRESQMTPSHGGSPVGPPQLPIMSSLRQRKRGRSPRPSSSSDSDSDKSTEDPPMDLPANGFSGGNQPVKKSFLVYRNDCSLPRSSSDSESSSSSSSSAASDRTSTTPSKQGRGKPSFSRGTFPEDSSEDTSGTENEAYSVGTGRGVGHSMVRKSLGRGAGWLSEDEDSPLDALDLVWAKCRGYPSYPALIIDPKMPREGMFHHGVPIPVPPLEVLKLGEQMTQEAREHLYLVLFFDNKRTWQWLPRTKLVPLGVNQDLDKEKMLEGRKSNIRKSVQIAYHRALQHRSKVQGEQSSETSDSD

[1] = target: Fibroblast growth factor receptor 3 (Homo sapiens) (UniProt P22607); conditions: Compound concentration 20.0 uM, Protein concentration 2.0 uM, Result type QC Liability
Fibroblast growth factor receptor 3 (Homo sapiens), sequence (P22607 23-806 limits assumed): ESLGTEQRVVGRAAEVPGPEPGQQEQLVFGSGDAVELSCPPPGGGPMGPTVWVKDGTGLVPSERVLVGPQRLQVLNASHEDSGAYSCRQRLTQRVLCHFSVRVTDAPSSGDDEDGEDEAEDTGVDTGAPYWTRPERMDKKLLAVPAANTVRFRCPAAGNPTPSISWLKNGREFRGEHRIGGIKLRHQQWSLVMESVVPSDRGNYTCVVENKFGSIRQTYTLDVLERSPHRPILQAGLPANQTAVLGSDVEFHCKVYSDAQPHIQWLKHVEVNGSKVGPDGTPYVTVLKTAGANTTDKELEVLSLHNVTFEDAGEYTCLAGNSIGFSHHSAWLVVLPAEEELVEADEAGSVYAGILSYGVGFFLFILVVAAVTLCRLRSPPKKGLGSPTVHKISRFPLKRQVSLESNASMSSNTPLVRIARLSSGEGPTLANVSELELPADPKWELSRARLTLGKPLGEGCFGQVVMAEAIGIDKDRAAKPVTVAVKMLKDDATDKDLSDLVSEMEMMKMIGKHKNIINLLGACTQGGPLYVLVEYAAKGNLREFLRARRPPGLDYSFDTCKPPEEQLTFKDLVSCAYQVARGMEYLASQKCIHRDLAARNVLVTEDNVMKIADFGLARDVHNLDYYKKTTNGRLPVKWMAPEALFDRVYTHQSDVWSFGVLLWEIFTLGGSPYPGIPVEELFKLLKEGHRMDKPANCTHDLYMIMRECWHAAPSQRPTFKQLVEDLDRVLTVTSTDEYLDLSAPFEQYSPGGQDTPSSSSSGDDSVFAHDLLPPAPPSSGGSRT
Description: Thermal Shift Assay. Domain: start/stop: P449-E759

Cc1ccc2c(NS(=O)(=O)c3ccccc3Cl)cccc2c1Oc1ncccc1-c1ccnc(N[C@H]2CCCNC2)n1
ΔTm (Peregrin (Homo sapiens)): -3.81 °C
ΔTm [1]: 0.02 °C

CS(=O)(=O)c1cc(C2(NC(=O)c3cncc4c3cnn4-c3ccc(F)cc3)CC2)ccn1
ΔTm (Peregrin (Homo sapiens)): -2.04 °C
ΔTm [1]: 0.85 °C

COc1cc(-c2cc3ncccc3c(OC[C@H]3CNC(=O)C3)n2)cc(OC)c1OC1CCOCC1
ΔTm (Peregrin (Homo sapiens)): -1.09 °C
ΔTm [1]: 1.16 °C

CCc1nc(-c2cccc(C)c2)c(-c2ccnc(NC(=O)c3ccccc3)c2)s1
ΔTm (Peregrin (Homo sapiens)): -2.72 °C
ΔTm [1]: -0.84 °C

CN(C1CCc2c(c3ccccc3n2CC(=O)O)C1)S(=O)(=O)c1ccc(F)cc1 (stereo not given)
ΔTm (Peregrin (Homo sapiens)): -2.54 °C
ΔTm [1]: 0.46 °C

CCc1cnn2c(NCc3ccc[n+]([O-])c3)cc(N3CCCCC3CCO)nc12 (stereo not given)
ΔTm (Peregrin (Homo sapiens)): -1.7 °C
ΔTm [1]: 1.49 °C

CCCCC/C=C/C=C1/C(=O)C=C[C@@H]1C/C=C\CCCC(=O)O
ΔTm (Peregrin (Homo sapiens)): -3.72 °C
ΔTm [1]: 0.72 °C

Cn1cnc(Cn2ccc3ccc(CNCc4[nH]c5ccccc5c4[C@@H]4NC(=O)c5ccc(O)cc54)cc32)c1
ΔTm (Peregrin (Homo sapiens)): -1.61 °C
ΔTm [1]: 0.85 °C

O=C(N[C@H](Cc1ccccc1)C(=O)O)c1cccc(OCc2cccnc2)c1
ΔTm (Peregrin (Homo sapiens)): -2.18 °C
ΔTm [1]: 0.53 °C

C[C@@H]1OCC2(CCN(c3cnc(Sc4ccnc(N)c4Cl)c(N)n3)CC2)[C@@H]1N
ΔTm (Peregrin (Homo sapiens)): -1.53 °C
ΔTm [1]: 0.48 °C

COC1(C#Cc2ccc(Cl)c(-c3ncc4c(n3)-c3sc(NC(C)=O)nc3CC4)c2)CCN(C)CC1
ΔTm (Peregrin (Homo sapiens)): -1.7 °C
ΔTm [1]: 0.77 °C

CC(C)S(=O)(=O)c1ccccc1Nc1nc(N[C@@H]2CCCN(CCCCCCCNC(=O)COc3cccc4c3C(=O)N(C3CCC(=O)NC3=O)C4=O)C2)ncc1Cl (stereo not given in full)
ΔTm (Peregrin (Homo sapiens)): 0.63 °C
ΔTm [1]: 7.81 °C

COc1ccc2c(O[C@@H]3C[C@H]4C(=O)N[C@]5(C(=O)NS(=O)(=O)C6(C)CC6)CC5/C=C\CCCCC[C@H](NC(=O)c5ccn(C)n5)C(=O)N4C3)cc(OC(C)C)nc2c1C (stereo not given in full)
ΔTm (Peregrin (Homo sapiens)): -0.57 °C
ΔTm [1]: 0.93 °C

N[C@@H]1CCCC[C@H]1Oc1ccc2ncc(-c3cc4ccccc4o3)n2n1
ΔTm (Peregrin (Homo sapiens)): -2.67 °C
ΔTm [1]: 0.36 °C

CN[C@@H]1CC[C@@H](c2ccc(Cl)c(Cl)c2)c2ccccc21
ΔTm (Peregrin (Homo sapiens)): -1.62 °C
ΔTm [1]: 0.61 °C

C[C@@H]1CC(=O)N(C2CC2)N=C1c1ccc(NC(=O)N2Cc3ccncc3C2)cc1
ΔTm (Peregrin (Homo sapiens)): -2.03 °C
ΔTm [1]: 0.58 °C

COc1cc(-c2cc3ncccc3c(O[C@@H](C)[C@H]3CNC(=O)C3)n2)cc(OC)c1OC
ΔTm (Peregrin (Homo sapiens)): -2.76 °C
ΔTm [1]: 0.6 °C

CN(C)[C@H]1CCc2nc(NC(=O)c3cccc(Cn4cc(-c5ccc(C#N)cc5)cn4)c3)sc2C1
ΔTm (Peregrin (Homo sapiens)): 0.07 °C
ΔTm [1]: 0.81 °C

Cn1cncc1-c1cn(-c2cccc(C(=O)Nc3cccc(C(F)(F)F)c3)c2)nn1
ΔTm (Peregrin (Homo sapiens)): -1.49 °C
ΔTm [1]: -9.32 °C

CN[C@@H](C)C(=O)N[C@H](C(=O)N1CCC[C@H]1C(=O)N[C@H]1c2ccccc2C[C@H]1OCC#CC#CCO[C@@H]1Cc2ccccc2[C@@H]1NC(=O)[C@@H]1CCCN1C(=O)[C@@H](NC(=O)[C@H](C)NC)C1CCCCC1)C1CCCCC1
ΔTm (Peregrin (Homo sapiens)): -2.65 °C
ΔTm [1]: 1.42 °C

CC(C)(C)c1cc(NC(=O)c2csc(Nc3ccccn3)n2)no1
ΔTm (Peregrin (Homo sapiens)): -2.33 °C
ΔTm [1]: 0.72 °C

FC(F)(F)c1ccc(CNc2ccc(Cc3c[nH]c4ncc(Cl)cc34)cn2)cn1
ΔTm (Peregrin (Homo sapiens)): -0.43 °C
ΔTm [1]: 3.63 °C

CC(C)N(C(=O)C1CCOCC1)c1cc(F)c(Oc2ncc(Cn3nccn3)cc2C(F)(F)F)cc1C(=O)O
ΔTm (Peregrin (Homo sapiens)): -3.32 °C
ΔTm [1]: 0.39 °C

O=C(O)CCCN1CCC[C@H]1COc1ccc(Oc2ccc(Cl)cc2)cc1
ΔTm (Peregrin (Homo sapiens)): -3.24 °C
ΔTm [1]: 0.41 °C

CO[C@H](C)CN1CC[C@]2(C)c3cccc(O)c3C[C@H]1C2(C)C
ΔTm (Peregrin (Homo sapiens)): -1.37 °C
ΔTm [1]: 0.41 °C

CSc1ccc(C(=O)/C=C/c2cc(C)c(OC(C)(C)C(=O)O)c(C)c2)cc1
ΔTm (Peregrin (Homo sapiens)): -1.39 °C
ΔTm [1]: 1.12 °C

COc1cc(OC)cc(-c2cc3cnc(N)nc3nc2NC(=O)NC(C)(C)C)c1
ΔTm (Peregrin (Homo sapiens)): -0.52 °C and -0.82 °C
ΔTm [1]: 5.05 °C and 9.51 °C

O=C(O)C[C@H]1CCn2c1c(Sc1ccc(Cl)cc1)c1ccc(F)cc12
ΔTm (Peregrin (Homo sapiens)): -3.8 °C
ΔTm [1]: -0.05 °C

C=C[C@@]12CCc3cc(O)ccc3[C@H]1CC[C@@]1(C)[C@H]2CC[C@@H]1O
ΔTm (Peregrin (Homo sapiens)): -6.72 °C
ΔTm [1]: 0.31 °C

O=S(=O)(Nc1ccc(C(O)(C(F)(F)F)C(F)(F)F)cc1)c1cccs1
ΔTm (Peregrin (Homo sapiens)): -1.54 °C
ΔTm [1]: 0.59 °C
